Legend:
[1] = Stability in PBS, RP-HPLC analysis; type: physicochemical; conditions: pH 7.4, 22 °C, up to 48 h
[2] = test system: CHO-hNTS1R cells; assay: Confocal microscopy at live CHO-hNTS1R cells; type: cell-based, Chinese hamster; conditions: for unspecific binding: 22–25 °C, in the presence of 1 (100-fold excess)

Row | SMILES | stability [1] | unspecific binding [2] | cellular uptake ([2]; 200 nM, 22-25 °C, CHO-hNTS1R cells)
1 | CC[C@H](C)[C@H](NC(=O)[C@H](Cc1ccc(O)cc1)NC(=O)[C@@H]1CCCN1C(=O)[C@H](CCCNC(=N)N)NC(=O)[C@@H](N)CCCNC(=N)NC(=O)NCCCCNC(=O)CCCCCN1\C(=C/C=C/C=C/C2=[N+](CCCCS(=O)(=O)[O-])c3ccccc3C2(C)C)C(C)(C)c2cc(S(=O)(=O)O)ccc21)C(=O)N[C@@H](CC(C)C)C(=O)O [compound 6, N-(N-[4-{N-(6-[3,3-Dimethyl-6-sulfonato-2-{5-(3,3-dimethyl-1-[4-sulfonatobutyl]-3H-indol-1-ium-2-yl)penta-2,4-dien-1-ylidene}indolin-1-yl]hexanoyl)amino}butyl]aminocarbonyl)-Arg-Arg-Pro-Tyr-Ile-Leu bis(hydrotrifluoroacetate)] | excellent stabilities | very low | –
2 | CC[C@H](C)[C@H](NC(=O)[C@H](Cc1ccc(O)cc1)NC(=O)[C@@H]1CCCN1C(=O)[C@H](CCCNC(=N)N)NC(=O)[C@@H](N)CCCNC(=N)NC(=O)NCCOCCOCCNC(=O)CCCCCN1\C(=C/C=C/C=C/C2=[N+](CCCCS(=O)(=O)[O-])c3ccccc3C2(C)C)C(C)(C)c2ccccc21)C(=O)N[C@@H](CC(C)C)C(=O)O [compound 11] | excellent stabilities | very low | –
3 | CC[C@H](C)[C@H](NC(=O)[C@H](Cc1ccc(O)cc1)NC(=O)[C@@H]1CCCN1C(=O)[C@H](CCCNC(=N)N)NC(=O)[C@@H](N)CCCNC(=N)NC(=O)NCCOCCOCC[n+]1c(C)cc(/C=C/C=C/c2ccc(N(C)C)cc2)cc1C)C(=O)N[C@@H](CC(C)C)C(=O)O [compound 14] | minor decomposition after incubation times >24 h | very low | –
4 | CC[C@H](C)[C@H](NC(=O)[C@H](Cc1ccc(O)cc1)NC(=O)[C@@H]1CCCN1C(=O)[C@H](CCCNC(=N)NC(=O)NCCOCCOCCNC(=O)CCCCCN1/C(=C/C=C/C=C/C2=[N+](CCCCS(=O)(=O)[O-])c3ccccc3C2(C)C)C(C)(C)c2cc(S(=O)(=O)O)ccc21)NC(=O)[C@@H](N)CCCNC(=N)N)C(=O)N[C@@H](CC(C)C)C(=O)O [compound 17] | excellent stabilities | – | –
5 | CCNC(=O)CCCCCN1/C(=C/C=C/C=C/C2=[N+](CCCCS(=O)(=O)[O-])c3ccccc3C2(C)C)C(C)(C)c2cc(S(=O)(=O)O)ccc21 [compound 20] | – | – | no uptake
